In PubChem BioAssay AID2060619 (Molecular Pharmacology Branch, DTP, NCI, 2025):
pIC50: −log10 of the molar value.

Tested on: 323965-272-R-J2-PDC complex spheroid viability
Test: Anticancer human tumor 323965-272-R-J2-PDC patient-derived pancreatic carcinoma cell line growth inhibition [CLK]
Conditions: for pIC50: curve of first compound; for viability, T/C: stronger effect = lower value
How it was run: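 Patient-derived tumor cells grown as complex spheroids with HUVEC endothelial cells and mesenchymal stem cells, treated with drug combinations. Concentrations descend in half-log steps from near clinical Cmax, or from 10 microM if Cmax unknown.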

[1] = second compound 0.0316 µM, first compound 0.0316 µM
[2] = second compound 0.0316 µM, first compound 0.1 µM
[3] = second compound 0.0316 µM, first compound 0.316 µM
[4] = second compound 0.0316 µM, first compound 1 µM
[5] = second compound 0.0316 µM, first compound 3.16 µM
[6] = second compound 0.0316 µM, first compound 10 µM
[7] = second compound 0.1 µM, first compound 0.0316 µM
[8] = second compound 0.1 µM, first compound 0.1 µM
[9] = second compound 0.1 µM, first compound 0.316 µM
[10] = second compound 0.1 µM, first compound 1 µM
[11] = second compound 0.1 µM, first compound 3.16 µM
[12] = second compound 0.1 µM, first compound 10 µM
[13] = second compound 0.316 µM, first compound 0.0316 µM
[14] = second compound 0.316 µM, first compound 0.1 µM
[15] = second compound 0.316 µM, first compound 0.316 µM
[16] = second compound 0.316 µM, first compound 1 µM
[17] = second compound 0.316 µM, first compound 3.16 µM
[18] = second compound 0.316 µM, first compound 10 µM
[19] = second compound 1 µM, first compound 0.0316 µM
[20] = second compound 1 µM, first compound 0.1 µM
[21] = second compound 1 µM, first compound 0.316 µM
[22] = second compound 1 µM, first compound 1 µM
[23] = second compound 1 µM, first compound 3.16 µM
[24] = second compound 1 µM, first compound 10 µM
[25] = second compound 3.16 µM, first compound 0.0316 µM
[26] = second compound 3.16 µM, first compound 0.1 µM
[27] = second compound 3.16 µM, first compound 0.316 µM
[28] = second compound 3.16 µM, first compound 1 µM
[29] = second compound 3.16 µM, first compound 3.16 µM
[30] = second compound 3.16 µM, first compound 10 µM
[31] = second compound 10 µM, first compound 0.0316 µM
[32] = second compound 10 µM, first compound 0.1 µM
[33] = second compound 10 µM, first compound 0.316 µM
[34] = second compound 10 µM, first compound 1 µM
[35] = second compound 10 µM, first compound 3.16 µM
[36] = second compound 10 µM, first compound 10 µM
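Note: spheroids exposed to agents for seven days before readout.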
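Throughout, for viability, T/C: percent of DMSO vehicle control wells so 100% = untreated growth.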

C=CC(=O)Nc1cc(Nc2nccc(-c3cn(C)c4ccccc34)n2)c(OC)cc1N(C)CCN(C)C + CNC(=O)c1ccc(Nc2nc(OC3CCCC3)c3c(-c4ccc5nc(C)oc5c4)c[nH]c3n2)c(OC)c1
pIC50 (second compound 0.0316 µM): < 6.52 | pIC50 (second compound 0.1 µM): 6.77 | pIC50 (second compound 0.316 µM): 7.96 | pIC50 (second compound 1 µM): > 9.02 | pIC50 (second compound 3.16 µM): > 9.02 | pIC50 (second compound 10 µM): > 9.02 | viability, T/C (second compound 0.0316 µM, first compound 0.000949 µM): 101% | viability, T/C (second compound 0.0316 µM, first compound 0.003 µM): 110% | viability, T/C (second compound 0.0316 µM, first compound 0.00949 µM): 86% | viability, T/C (second compound 0.0316 µM, first compound 0.03 µM): 85.1% | viability, T/C (second compound 0.0316 µM, first compound 0.0949 µM): 81.9% | viability, T/C (second compound 0.0316 µM, first compound 0.3 µM): 83.5% | viability, T/C (second compound 0.1 µM, first compound 0.000949 µM): 70.8% | viability, T/C (second compound 0.1 µM, first compound 0.003 µM): 71.8% | viability, T/C (second compound 0.1 µM, first compound 0.00949 µM): 62.8% | viability, T/C (second compound 0.1 µM, first compound 0.03 µM): 60.1% | viability, T/C (second compound 0.1 µM, first compound 0.0949 µM): 57.1% | viability, T/C (second compound 0.1 µM, first compound 0.3 µM): 44.8% | viability, T/C (second compound 0.316 µM, first compound 0.000949 µM): 54.5% | viability, T/C (second compound 0.316 µM, first compound 0.003 µM): 55.5% | viability, T/C (second compound 0.316 µM, first compound 0.00949 µM): 46.9% | viability, T/C (second compound 0.316 µM, first compound 0.03 µM): 48% | viability, T/C (second compound 0.316 µM, first compound 0.0949 µM): 40.5% | viability, T/C (second compound 0.316 µM, first compound 0.3 µM): 31.6% | viability, T/C (second compound 1 µM, first compound 0.000949 µM): 41.9% | viability, T/C (second compound 1 µM, first compound 0.003 µM): 39% | viability, T/C (second compound 1 µM, first compound 0.00949 µM): 40.7% | viability, T/C (second compound 1 µM, first compound 0.03 µM): 34.4% | viability, T/C (second compound 1 µM, first compound 0.0949 µM): 34.2% | viability, T/C (second compound 1 µM, first compound 0.3 µM): 26.8% | viability, T/C (second compound 3.16 µM, first compound 0.000949 µM): 36.6% | viability, T/C (second compound 3.16 µM, first compound 0.003 µM): 43.6% | viability, T/C (second compound 3.16 µM, first compound 0.00949 µM): 37.6% | viability, T/C (second compound 3.16 µM, first compound 0.03 µM): 34.6% | viability, T/C (second compound 3.16 µM, first compound 0.0949 µM): 28.5% | viability, T/C (second compound 3.16 µM, first compound 0.3 µM): 29% | viability, T/C (second compound 10 µM, first compound 0.000949 µM): 45.3% | viability, T/C (second compound 10 µM, first compound 0.003 µM): 39.3% | viability, T/C (second compound 10 µM, first compound 0.00949 µM): 38.8% | viability, T/C (second compound 10 µM, first compound 0.03 µM): 31.4% | viability, T/C (second compound 10 µM, first compound 0.0949 µM): 32.8% | viability, T/C (second compound 10 µM, first compound 0.3 µM): 27.7%

CC(Nc1ccc2c(c1)OCCn1cc(N3C(=O)OCC3C(F)F)nc1-2)C(N)=O (stereo not drawn) + CNC(=O)c1ccc(Nc2nc(OC3CCCC3)c3c(-c4ccc5nc(C)oc5c4)c[nH]c3n2)c(OC)c1
pIC50 (second compound 0.0316 µM): < 5.00 | pIC50 (second compound 0.1 µM): < 5.00 | pIC50 (second compound 0.316 µM): 6.54 | pIC50 (second compound 1 µM): > 7.50 | pIC50 (second compound 3.16 µM): > 7.50 | pIC50 (second compound 10 µM): > 7.50 | viability, T/C [1]: 110% | viability, T/C [2]: 97.7% | viability, T/C [3]: 80.4% | viability, T/C [4]: 68.9% | viability, T/C [5]: 64% | viability, T/C [6]: 52% | viability, T/C [7]: 89.7% | viability, T/C [8]: 74.6% | viability, T/C [9]: 73.9% | viability, T/C [10]: 71.6% | viability, T/C [11]: 58.4% | viability, T/C [12]: 50.5% | viability, T/C [13]: 63.6% | viability, T/C [14]: 59.5% | viability, T/C [15]: 48.5% | viability, T/C [16]: 43.1% | viability, T/C [17]: 39.9% | viability, T/C [18]: 39.2% | viability, T/C [19]: 43.4% | viability, T/C [20]: 36.5% | viability, T/C [21]: 33% | viability, T/C [22]: 29.6% | viability, T/C [23]: 30.1% | viability, T/C [24]: 27.7% | viability, T/C [25]: 34.8% | viability, T/C [26]: 35.6% | viability, T/C [27]: 30.7% | viability, T/C [28]: 27.8% | viability, T/C [29]: 30.7% | viability, T/C [30]: 21.7% | viability, T/C [31]: 42% | viability, T/C [32]: 33.8% | viability, T/C [33]: 28% | viability, T/C [34]: 28.8% | viability, T/C [35]: 28% | viability, T/C [36]: 20.9%

CCN1CCN(Cc2ccc(Nc3ncc(F)c(-c4cc(F)c5nc(C)n(C(C)C)c5c4)n3)nc2)CC1 + CNC(=O)c1ccc(Nc2nc(OC3CCCC3)c3c(-c4ccc5nc(C)oc5c4)c[nH]c3n2)c(OC)c1
pIC50 (second compound 0.0316 µM): < 6.00 | pIC50 (second compound 0.1 µM): < 6.00 | pIC50 (second compound 0.316 µM): < 6.00 | pIC50 (second compound 1 µM): > 8.50 | pIC50 (second compound 3.16 µM): > 8.50 | pIC50 (second compound 10 µM): > 8.50 | viability, T/C (second compound 0.0316 µM, first compound 0.00316 µM): 90.3% | viability, T/C (second compound 0.0316 µM, first compound 0.01 µM): 103% | viability, T/C [1]: 86.9% | viability, T/C [2]: 68.4% | viability, T/C [3]: 66.2% | viability, T/C [4]: 74.3% | viability, T/C (second compound 0.1 µM, first compound 0.00316 µM): 84.9% | viability, T/C (second compound 0.1 µM, first compound 0.01 µM): 73.4% | viability, T/C [7]: 60.6% | viability, T/C [8]: 63.1% | viability, T/C [9]: 55.7% | viability, T/C [10]: 67.6% | viability, T/C (second compound 0.316 µM, first compound 0.00316 µM): 64.1% | viability, T/C (second compound 0.316 µM, first compound 0.01 µM): 53.4% | viability, T/C [13]: 54.2% | viability, T/C [14]: 44.2% | viability, T/C [15]: 50.6% | viability, T/C [16]: 57.6% | viability, T/C (second compound 1 µM, first compound 0.00316 µM): 48.5% | viability, T/C (second compound 1 µM, first compound 0.01 µM): 40.5% | viability, T/C [19]: 45.9% | viability, T/C [20]: 49.4% | viability, T/C [21]: 40.4% | viability, T/C [22]: 61.7% | viability, T/C (second compound 3.16 µM, first compound 0.00316 µM): 42.8% | viability, T/C (second compound 3.16 µM, first compound 0.01 µM): 39.2% | viability, T/C [25]: 37.6% | viability, T/C [26]: 39.8% | viability, T/C [27]: 43.1% | viability, T/C [28]: 46.8% | viability, T/C (second compound 10 µM, first compound 0.00316 µM): 42.7% | viability, T/C (second compound 10 µM, first compound 0.01 µM): 46.4% | viability, T/C [31]: 41.5% | viability, T/C [32]: 38.5% | viability, T/C [33]: 46% | viability, T/C [34]: 48.5%

Nc1ccccc1NC(=O)c1ccc(CNC(=O)OCc2cccnc2)cc1 + CNC(=O)c1ccc(Nc2nc(OC3CCCC3)c3c(-c4ccc5nc(C)oc5c4)c[nH]c3n2)c(OC)c1
pIC50 (second compound 0.0316 µM): 5.26 | pIC50 (second compound 0.1 µM): 5.19 | pIC50 (second compound 0.316 µM): 5.62 | pIC50 (second compound 1 µM): 5.95 | pIC50 (second compound 3.16 µM): > 7.50 | pIC50 (second compound 10 µM): > 7.50 | viability, T/C [1]: 112% | viability, T/C [2]: 113% | viability, T/C [3]: 118% | viability, T/C [4]: 93.5% | viability, T/C [5]: 58.4% | viability, T/C [6]: 41.4% | viability, T/C [7]: 90.3% | viability, T/C [8]: 89% | viability, T/C [9]: 98.3% | viability, T/C [10]: 92.2% | viability, T/C [11]: 62.1% | viability, T/C [12]: 42.8% | viability, T/C [13]: 67.2% | viability, T/C [14]: 69.2% | viability, T/C [15]: 72.6% | viability, T/C [16]: 75.3% | viability, T/C [17]: 43.4% | viability, T/C [18]: 28.8% | viability, T/C [19]: 62.4% | viability, T/C [20]: 57.5% | viability, T/C [21]: 58.7% | viability, T/C [22]: 51.7% | viability, T/C [23]: 35.3% | viability, T/C [24]: 26.2% | viability, T/C [25]: 50.7% | viability, T/C [26]: 47.7% | viability, T/C [27]: 49.8% | viability, T/C [28]: 44% | viability, T/C [29]: 32.2% | viability, T/C [30]: 25.5% | viability, T/C [31]: 41% | viability, T/C [32]: 47.3% | viability, T/C [33]: 47.1% | viability, T/C [34]: 37.5% | viability, T/C [35]: 31.2% | viability, T/C [36]: 25.7%
